Measured values taken from patent US8338608B2, “Inhibitors of ion channels” (Icagen Inc., priority 2005, dated 2012).

Key:
hSCN3A = molecular target: T1, hSCN3A (Homo sapiens, UniProt Q9NY46); assay: SCN3A inhibitory activity in HEK cells stably expressing hSCN3A (whole-cell patch clamp / radiotracer efflux HTS); type: cell-based; details: HEK cells stably transfected with hSCN3A; read-out: SCN3A Inhibitory Activity
T1 construct: expressed in transfected cells

Nav1.2 = Nav1.2 (Homo sapiens, UniProt Q99250); details: read-out: TTX IC-50; cited from earlier work
Nav1.1 = Nav1.1 (Homo sapiens, UniProt P35498); details: read-out: TTX IC-50; cited from earlier work
Nav1.6 = Nav1.6 (Homo sapiens, UniProt Q9UQD0); details: read-out: TTX IC-50; cited from earlier work
Nav1.8 = Nav1.8 (Homo sapiens, UniProt Q9Y5Y9); details: read-out: TTX IC-50; cited from earlier work
Nav1.3 = Nav1.3 (Homo sapiens, UniProt Q9NY46); details: read-out: TTX IC-50; cited from earlier work
Sequence of Nav1.3 (Q9NY46 whole entry, looked up): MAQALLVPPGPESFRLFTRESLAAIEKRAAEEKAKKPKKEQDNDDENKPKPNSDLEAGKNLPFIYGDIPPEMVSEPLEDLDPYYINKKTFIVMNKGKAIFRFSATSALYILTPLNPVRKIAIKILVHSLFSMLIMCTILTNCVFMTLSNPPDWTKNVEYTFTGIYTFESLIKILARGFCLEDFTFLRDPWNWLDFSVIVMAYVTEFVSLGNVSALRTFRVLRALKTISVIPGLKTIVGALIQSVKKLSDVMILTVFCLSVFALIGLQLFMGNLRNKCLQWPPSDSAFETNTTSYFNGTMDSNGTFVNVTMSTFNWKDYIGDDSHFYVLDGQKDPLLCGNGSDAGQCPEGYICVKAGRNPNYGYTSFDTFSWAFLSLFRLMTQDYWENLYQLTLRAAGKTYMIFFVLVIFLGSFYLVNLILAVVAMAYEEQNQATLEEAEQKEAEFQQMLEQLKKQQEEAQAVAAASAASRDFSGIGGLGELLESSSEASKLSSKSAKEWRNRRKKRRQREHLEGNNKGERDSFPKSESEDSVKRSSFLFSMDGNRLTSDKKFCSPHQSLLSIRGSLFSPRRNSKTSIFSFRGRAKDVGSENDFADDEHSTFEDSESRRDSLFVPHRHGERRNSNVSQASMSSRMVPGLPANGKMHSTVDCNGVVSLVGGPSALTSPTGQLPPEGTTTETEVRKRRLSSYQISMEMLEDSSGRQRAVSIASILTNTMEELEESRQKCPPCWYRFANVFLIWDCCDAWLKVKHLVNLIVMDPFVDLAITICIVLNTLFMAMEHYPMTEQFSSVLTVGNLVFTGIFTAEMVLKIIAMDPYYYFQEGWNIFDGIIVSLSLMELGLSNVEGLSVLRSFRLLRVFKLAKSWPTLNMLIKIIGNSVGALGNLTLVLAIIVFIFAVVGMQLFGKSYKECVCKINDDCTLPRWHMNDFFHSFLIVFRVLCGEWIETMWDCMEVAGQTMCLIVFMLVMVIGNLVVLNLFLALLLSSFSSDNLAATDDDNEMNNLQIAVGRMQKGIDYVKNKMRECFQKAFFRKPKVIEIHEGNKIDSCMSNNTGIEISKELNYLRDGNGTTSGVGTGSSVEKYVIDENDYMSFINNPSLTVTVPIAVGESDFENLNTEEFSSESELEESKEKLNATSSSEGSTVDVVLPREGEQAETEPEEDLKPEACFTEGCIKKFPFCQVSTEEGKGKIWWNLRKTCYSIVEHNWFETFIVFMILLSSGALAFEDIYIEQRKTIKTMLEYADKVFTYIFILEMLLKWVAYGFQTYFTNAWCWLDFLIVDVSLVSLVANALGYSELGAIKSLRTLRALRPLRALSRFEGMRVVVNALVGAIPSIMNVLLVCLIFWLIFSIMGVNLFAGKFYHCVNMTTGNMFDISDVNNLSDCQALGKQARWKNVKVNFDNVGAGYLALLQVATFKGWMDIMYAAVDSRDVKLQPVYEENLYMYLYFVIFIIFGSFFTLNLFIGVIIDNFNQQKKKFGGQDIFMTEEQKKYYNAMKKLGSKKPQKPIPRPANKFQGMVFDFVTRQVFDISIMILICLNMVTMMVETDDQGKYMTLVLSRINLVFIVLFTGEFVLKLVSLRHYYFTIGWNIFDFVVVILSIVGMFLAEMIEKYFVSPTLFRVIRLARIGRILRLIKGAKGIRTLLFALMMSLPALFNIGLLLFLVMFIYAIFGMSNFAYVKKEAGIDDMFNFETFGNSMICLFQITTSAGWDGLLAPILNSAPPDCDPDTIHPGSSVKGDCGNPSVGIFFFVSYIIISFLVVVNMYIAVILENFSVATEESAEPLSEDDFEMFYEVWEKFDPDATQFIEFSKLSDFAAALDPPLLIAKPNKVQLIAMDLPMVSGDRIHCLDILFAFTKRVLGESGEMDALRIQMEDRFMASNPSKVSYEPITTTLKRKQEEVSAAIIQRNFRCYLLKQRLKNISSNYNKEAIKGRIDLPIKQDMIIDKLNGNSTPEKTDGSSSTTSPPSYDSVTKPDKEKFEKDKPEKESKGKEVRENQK

Nav1.9 = Nav1.9 (Homo sapiens, UniProt Q9UI33); details: read-out: TTX IC-50; cited from earlier work
Sequence of Nav1.9 (Q9UI33 whole entry, looked up): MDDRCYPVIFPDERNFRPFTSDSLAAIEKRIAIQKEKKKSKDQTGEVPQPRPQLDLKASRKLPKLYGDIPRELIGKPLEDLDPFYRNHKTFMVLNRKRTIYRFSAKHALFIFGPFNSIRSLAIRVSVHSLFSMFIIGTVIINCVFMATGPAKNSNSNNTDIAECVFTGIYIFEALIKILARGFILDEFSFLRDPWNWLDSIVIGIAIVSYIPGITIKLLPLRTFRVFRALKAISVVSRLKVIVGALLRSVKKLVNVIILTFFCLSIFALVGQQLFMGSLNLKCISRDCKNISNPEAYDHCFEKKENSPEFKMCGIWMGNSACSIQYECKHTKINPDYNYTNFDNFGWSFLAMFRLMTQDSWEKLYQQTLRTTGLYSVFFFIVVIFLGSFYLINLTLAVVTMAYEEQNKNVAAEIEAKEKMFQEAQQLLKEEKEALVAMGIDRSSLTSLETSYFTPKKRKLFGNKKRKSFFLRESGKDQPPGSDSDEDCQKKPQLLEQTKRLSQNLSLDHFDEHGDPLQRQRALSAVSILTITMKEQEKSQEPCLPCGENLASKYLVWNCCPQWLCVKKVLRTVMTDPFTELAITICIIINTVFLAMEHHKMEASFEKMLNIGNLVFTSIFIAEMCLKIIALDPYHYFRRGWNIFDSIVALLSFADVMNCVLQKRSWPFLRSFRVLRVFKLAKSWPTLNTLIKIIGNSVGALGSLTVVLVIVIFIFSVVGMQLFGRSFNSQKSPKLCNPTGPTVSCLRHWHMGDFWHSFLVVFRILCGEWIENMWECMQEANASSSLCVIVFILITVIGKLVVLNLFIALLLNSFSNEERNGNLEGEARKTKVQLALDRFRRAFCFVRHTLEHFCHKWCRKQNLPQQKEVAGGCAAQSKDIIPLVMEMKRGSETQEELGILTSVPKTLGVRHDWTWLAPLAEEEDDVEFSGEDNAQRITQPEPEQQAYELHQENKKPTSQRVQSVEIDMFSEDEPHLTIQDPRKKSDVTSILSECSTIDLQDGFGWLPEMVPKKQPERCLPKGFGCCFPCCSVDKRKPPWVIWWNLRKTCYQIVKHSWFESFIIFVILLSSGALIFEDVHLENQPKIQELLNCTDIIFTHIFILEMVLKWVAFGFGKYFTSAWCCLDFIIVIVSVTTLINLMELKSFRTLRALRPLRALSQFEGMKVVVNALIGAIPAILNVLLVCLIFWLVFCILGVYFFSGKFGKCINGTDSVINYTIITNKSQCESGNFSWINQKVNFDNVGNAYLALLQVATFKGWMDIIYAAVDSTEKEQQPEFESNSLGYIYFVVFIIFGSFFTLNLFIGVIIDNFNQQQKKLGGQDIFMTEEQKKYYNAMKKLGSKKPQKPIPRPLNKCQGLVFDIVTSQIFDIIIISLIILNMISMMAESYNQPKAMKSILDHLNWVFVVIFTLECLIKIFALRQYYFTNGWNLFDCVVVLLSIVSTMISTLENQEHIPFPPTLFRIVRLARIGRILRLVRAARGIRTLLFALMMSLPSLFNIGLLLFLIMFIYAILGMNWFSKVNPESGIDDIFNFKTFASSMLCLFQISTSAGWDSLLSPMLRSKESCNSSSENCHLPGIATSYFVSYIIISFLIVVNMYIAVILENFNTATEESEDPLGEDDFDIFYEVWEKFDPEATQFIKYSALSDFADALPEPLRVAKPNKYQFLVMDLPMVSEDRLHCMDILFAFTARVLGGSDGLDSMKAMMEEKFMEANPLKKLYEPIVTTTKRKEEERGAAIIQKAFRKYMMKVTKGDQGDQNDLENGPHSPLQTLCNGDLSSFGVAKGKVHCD

[1] = 'as little as only'; cited from earlier work

T1 sequence (Q9NY46 whole entry): as the sequence (Q9NY46 whole entry, looked up) above

| Structure (SMILES) | IC50 (hSCN3A) | also measured |
| --- | --- | --- |
| CC(C)(CNS(=O)(=O)c1ccc(S(=O)(=O)Nc2nccs2)cc1)c1ccc(Cl)cc1 [Compound 39, Benzene-1,4-disulfonic acid 1-{[2-(4-chloro-phenyl)-2-methyl-propyl]-amide} 4-thiazol-2-ylamide] | 0.1 to 0.5 µM | – |
| O=S(=O)(NCc1cc(F)cc(C(F)(F)F)c1)c1ccc(S(=O)(=O)Nc2nccs2)cc1 [Compound 40, Benzene-1,4-disulfonic acid 1-(3-fluoro-5-trifluoromethyl-benzylamide) 4-thiazol-2-ylamide] | 0.1 to 0.5 µM | – |
| O=S(=O)(NCCc1ccc(Cl)s1)c1ccc(S(=O)(=O)Nc2nccs2)cc1 [Compound 41, Benzene-1,4-disulfonic acid 1-{[2-(5-chloro-thiophen-2-yl)-ethyl]-amide} 4-thiazol-2-ylamide] | 0.1 to 0.5 µM | – |
| CC(C)(C)CCNS(=O)(=O)c1ccc(S(=O)(=O)Nc2nccs2)c(F)c1 [Compound 42, 2-Fluoro-benzene-1,4-disulfonic acid 4-[(3,3-dimethyl-butyl)-amide] 1-thiazol-2-ylamide] | 0.1 to 0.5 µM | – |
| O=S(=O)(NCCOc1ccccc1Cl)Nc1ccc(S(=O)(=O)Nc2nccs2)cc1 [Compound 43, N-[2-(2-chloro-phenoxyl)-ethyl]-N′-[4-(N-thiazol-2-yl-sulfonamyl)-phenyl]-sulfamide] | 0.5 to 1 µM | – |
| O=S(=O)(NCCC1CCCCC1)c1ccc(S(=O)(=O)Nc2nccs2)cc1 [Compound 44, Benzene-1,4-disulfonic acid 1-[(2-cyclohexyl-ethyl)-amide] 4-thiazol-2-ylamide] | 0.5 to 1 µM | – |
| O=S(=O)(NCC(c1ccccc1)c1ccccc1)Nc1ccc(S(=O)(=O)Nc2nccs2)cn1 [Compound 45] | > 1 µM | – |
| O=S(=O)(NCCC1CCOCC1)Nc1ccc(S(=O)(=O)Nc2nccs2)cc1 [Compound 46, N-[2-(4-tetrahydro-pyranyl]-ethyl]-N′-[4-(N-thiazol-2-yl-sulfonamyl)-phenyl]-sulfamide] | > 1 µM | – |
| CN(CCc1ccccc1)S(=O)(=O)c1ccc(S(=O)(=O)Nc2nccs2)cc1 [Compound 47, Benzene-1,4-disulfonic acid 1-(methyl-phenethyl-amide) 4-thiazol-2-ylamide] | > 1 µM | – |
| NC1=N[C@H](O)[C@H]2[C@H]3O[C@]4(O)O[C@@H]([C@@H](O)[C@@]2(N1)[C@@H]4O)[C@]3(O)CO [TTX, tetrodotoxin] | – | IC50 (Nav1.2): 0.01 µM; IC50 (Nav1.1): 0.01 µM; IC50 (Nav1.6): 0.006 µM; IC50 (Nav1.8): 50 µM; IC50 (Nav1.3): 0.015 µM; IC50 (Nav1.9): 1 µM |
| NCC1(CC(=O)O)CCCCC1 [gabapentin] | – | patients respond to gabapentin treatment for neuropathic pain [1]: 30% |
